SMILES strings stand for the structures. Where “and” joins values, the source holds several entries; their conditions need not be identical. Equal values may be shown once. Calls of active or inactive are those of the source. The calls are words filed in the database; no cut-off is given here.

Series [1] relates to HGC-27. The series can be described thus: Induction of apoptosis in human HGC-27 cells assessed as necrotic cells at 8 uM incubated for 48 hrs by annexin V FITC/propidium iodide staining based flow cytometry (reference value: 1.24 %). It counts as functional. In general terms: In flow cytometry, cells or beads pass a laser one at a time.
The test system of series [2] is HGC-27. Nature of the series: Induction of apoptosis in human HGC-27 cells assessed as upregulation in Bax expression at 0.5 to 8 uM incubated for 48 hrs by Western blot analysis. It counts as functional, cell-based. Conditions: dose 0.5-8 µM.
Series [3] has as its system HGC-27. The series can be described thus: Induction of apoptosis in human HGC-27 cells assessed as necrotic cells at 2 uM incubated for 48 hrs by annexin V FITC/propidium iodide staining based flow cytometry (reference value: 1.24 %). In kind it is functional.
In series [4] the test system is HGC-27. Nature of the series: Induction of apoptosis in human HGC-27 cells assessed as viable cells at 8 uM incubated for 48 hrs by annexin V FITC/propidium iodide staining based flow cytometry (reference value: 93.0 %). In kind it is functional. Conditions: read-out: Activity.
Series [5] relates to HGC-27. Nature of the series: Induction of cell cycle arrest in human HGC-27 cells assessed as reduction in accumulation of cells at G0/G1 phase at 0.5 to 8 uM incubated for 24 hrs by PI staining based flow cytometry analysis. In kind it is functional. Conditions: dose 0.5-8 µM.
Series [6] has as its system HGC-27. The series can be described thus: Induction of apoptosis in human HGC-27 cells assessed as upregulation in cleaved caspase-3 expression at 0.5 to 8 uM incubated for 48 hrs by Western blot analysis. In kind it is functional, cell-based. The following applies: dose 0.5-8 µM. In general terms: Immunoblotting shows a protein as a band on a membrane.
Series [7] concerns HGC-27. Nature of the series: Induction of apoptosis in human HGC-27 cells assessed as upregulation in cleaved caspase-9 expression at 0.5 to 8 uM incubated for 48 hrs by Western blot analysis. The following applies: dose 0.5-8 µM. In kind it is functional, cell-based.
The subject of series [8] is MGC-803. The series can be described thus: Induction of cell cycle arrest in human MGC-803 cells assessed as reduction in accumulation of cells at S phase at 2.5 to 10 uM incubated for 24 hrs by PI staining based flow cytometry analysis. It counts as functional. The following applies: dose 2.5-10 µM.
Series [9] relates to HGC-27. The series can be described thus: Induction of apoptosis in human HGC-27 cells assessed as viable cells at 1.6 uM incubated for 48 hrs by annexin V FITC/propidium iodide staining based flow cytometry (reference value: 93.0 %). Conditions: read-out: Activity. In kind it is functional.
The nature of series [10]: Toxicity in BALB/c mouse xenografted with human HGC-27 cells assessed as platelet distribution width at 75 mg/kg, po bid for 19 days. The following applies: in vivo, 456 h, time 19 day. It counts as organism-based. (Xenograft models place foreign cells or tissue in a host animal.)
For series [11], the system named is MGC-803. The series can be described thus: Induction of cell cycle arrest in human MGC-803 cells assessed as reduction in accumulation of cells at G2/M phase at 5 to 20 uM incubated for 24 hrs by PI staining based flow cytometry analysis. In kind it is functional. Conditions: dose 5-20 µM.
For series [12], the system named is HGC-27. The series can be described thus: Induction of apoptosis in human HGC-27 cells assessed as late apoptotic cells at 1.6 uM incubated for 48 hrs by annexin V FITC/propidium iodide staining based flow cytometry (reference value: 5.14 %). It counts as functional.
Series [13] concerns HGC-27. Nature of the series: Induction of apoptosis in human HGC-27 cells assessed as necrotic cells at 1.6 uM incubated for 48 hrs by annexin V FITC/propidium iodide staining based flow cytometry (reference value: 1.24 %). It counts as functional.
A short description of series [14]: Toxicity in BALB/c mouse xenografted with human HGC-27 cells assessed as RBC level at 150 mg/kg, po bid for 19 days. In kind it is organism-based, Erythrocyte. Conditions: in vivo, 456 h, time 19 day.
In series [15] the test system is MGC-803. Nature of the series: Induction of cell cycle arrest in human MGC-803 cells assessed as reduction in accumulation of cells at S phase at 5 to 20 uM incubated for 24 hrs by PI staining based flow cytometry analysis. It counts as functional. The following applies: dose 5-20 µM.
Series [16] relates to MGC-803. Nature of the series: Induction of apoptosis in human MGC-803 cells assessed as viable cells at 20 uM incubated for 48 hrs by annexin V FITC/propidium iodide staining based flow cytometry (reference value: 94.4 %). In kind it is functional. Conditions: read-out: Activity.
Series [17] in a line: Toxicity in BALB/c mouse xenografted with human HGC-27 cells assessed as platelet level at 150 mg/kg, po bid for 19 days. In kind it is organism-based. Conditions: in vivo, 456 h, time 19 day.
Series [18] is described as follows: Toxicity in BALB/c mouse xenografted with human HGC-27 cells assessed as mean platelet volume at 75 mg/kg, po bid for 19 days. It counts as organism-based. Conditions: in vivo, 456 h, time 19 day.
Series [19] is described as follows: Toxicity in BALB/c mouse xenografted with human HGC-27 cells assessed as RBC level at 75 mg/kg, po bid for 19 days. In kind it is organism-based, Erythrocyte. The following applies: in vivo, 456 h, time 19 day.
The nature of series [20]: Toxicity in BALB/c mouse xenografted with human HGC-27 cells assessed as mean platelet volume at 150 mg/kg, po bid for 19 days. It counts as organism-based. The following applies: in vivo, 456 h, time 19 day.
The next series deals with SGC-7901. The series can be described thus: cells. It counts as functional, cell-based. The following applies: Homo sapiens, SGC-7901, 72 h.
Series [21] in a line: Toxicity in BALB/c mouse xenografted with human HGC-27 cells assessed as red blood cell distribution width at 75 mg/kg, po bid for 19 days. The following applies: in vivo, 456 h, time 19 day. In kind it is organism-based.
The test system of series [22] is HGC-27. Nature of the series: Induction of cell cycle arrest in human HGC-27 cells assessed as reduction in accumulation of cells at G2/M phase at 0.1 to 1.6 uM incubated for 24 hrs by PI staining based flow cytometry analysis. It counts as functional. Conditions: dose 0.1-1.6 µM.
For series [23], the system named is HGC-27. The series can be described thus: Induction of apoptosis in human HGC-27 cells assessed as upregulation in cytochrome c expression at 0.1 to 1.6 uM incubated for 48 hrs by Western blot analysis. The following applies: dose 0.1-1.6 µM. It counts as functional, cell-based.
Series [24] deals with HGC-27. The series can be described thus: Induction of apoptosis in human HGC-27 cells assessed as early apoptotic cells at 0.4 uM incubated for 48 hrs by annexin V FITC/propidium iodide staining based flow cytometry (reference value: 0.66 %). In kind it is functional.
For the next series, the system named is BGC-823. Nature of the series: cells. The following applies: Homo sapiens, BGC-823, 72 h. In kind it is functional, cell-based.
For series [25], the system named is HGC-27. Nature of the series: Induction of apoptosis in human HGC-27 cells assessed as early apoptotic cells at 0.1 uM incubated for 48 hrs by annexin V FITC/propidium iodide staining based flow cytometry (reference value: 0.66 %). In kind it is functional.
A short description of series [26]: Toxicity in BALB/c mouse xenografted with human HGC-27 cells assessed as granulocyte level at 150 mg/kg, po bid for 19 days. The following applies: in vivo, 456 h, time 19 day. In kind it is organism-based.
The nature of the next series: in vitro. The following applies: human, WI-38 cells.
Series [27] relates to HGC-27. Nature of the series: Induction of cell cycle arrest in human HGC-27 cells assessed as upregulation of p27 expression at 0.1 to 1.6 uM incubated for 48 hrs by Western blot analysis. It counts as functional, cell-based. The following applies: dose 0.1-1.6 µM.
Series [28] in a line: Acute toxicity in Kunming mouse assessed as effect on spleen pathology at 1000 mg/kg, po measured after 14 days. In kind it is organism-based. The following applies: in vivo, 336 h, time 14 day.
Series [29] is described as follows: Toxicity in BALB/c mouse xenografted with human HGC-27 cells assessed as granulocyte level at 75 mg/kg, po bid for 19 days. In kind it is organism-based. The following applies: in vivo, 456 h, time 19 day.
Series [30] has as its system HGC-27. The series can be described thus: Induction of apoptosis in human HGC-27 cells assessed as viable cells at 0.4 uM incubated for 48 hrs by annexin V FITC/propidium iodide staining based flow cytometry (reference value: 93.0 %). It counts as functional. Conditions: read-out: Activity.
Series [31] deals with HGC-27. Nature of the series: In vivo induction of apoptosis in human HGC-27 cells xenografted in BALB/c mouse assessed as increase in cleaved caspase-9 expression at 75 to 150 mg/kg , po bid administered for 19 days and measured by immunohistochemical analysis. The following applies: dose 75-150 mg/kg, time 19.0 day. It counts as functional, organism-based.
For a further series, the system named is AGS. Nature of the series: cells. It counts as functional, cell-based. Conditions: Homo sapiens, 72 h.
Series [32] relates to HGC-27. Nature of the series: Induction of cell cycle arrest in human HGC-27 cells assessed as reduction in accumulation of cells at S phase at 0.1 to 1.6 uM incubated for 24 hrs by PI staining based flow cytometry analysis. In kind it is functional. Conditions: dose 0.1-1.6 µM.

Description for AGS: Cytotoxicity against human AGS cells assessed as inhibition of cell growth incubated for 72 hrs by MTT assay
Description for BGC-823: Cytotoxicity against human BGC-823 cells assessed as inhibition of cell growth incubated for 72 hrs by MTT assay
Description for SGC-7901: Cytotoxicity against human SGC-7901 cells assessed as inhibition of cell growth incubated for 72 hrs by MTT assay
Description for in vitro: Cytotoxicity against human WI-38 cells assessed as inhibition of cell growth incubated for 72 hrs by MTT assay

For `O=C(NCc1ccc(NC(=O)c2ccccc2N2CCCC2)cc1)OCc1cccnc1`, the Activity is listed as 11.1% with HGC-27 [1] and 12.1% in the series with HGC-27 [3]. Moreover, the result in the series with HGC-27 [2], with HGC-27 [5], with HGC-27 [6], in the series on HGC-27 [7] and in the series on MGC-803 [8] was Active. In the series with HGC-27 [4], the viability at 8 µM was determined as 36.2%.

Take `O=C(NCc1ccc(NC(=O)c2cc(F)ccc2N2CCCC2)cc1)OCc1cccnc1`: the viability at 1.6 µM in the series with HGC-27 [9] amounted to 13.4%. The Activity is reported as 16.93 in [10]; 69.4% in the series with HGC-27 [12]; 16.9% in the series with HGC-27 [13]; 10.34 10^12/L in [14]; 1711 10^9/L in series [17]; 5.6 fL in [18]. The Activity was 11.74 10^12/L in series [19]; 6.28 fL in series [20]; 24.4% in series [21]; 2.63% in the series with HGC-27 [24]; 1.43% in the series with HGC-27 [25]; 72.9 10^9/L and 90.67% in [26]. Besides, the values for the Activity entry in [28] and in [29] were “Non-Toxic” and 91.4%, respectively. The result in the series on MGC-803 [11], with MGC-803 [15], in the series on HGC-27 [22], in the series with HGC-27 [23], in the series with HGC-27 [27] and in the series with HGC-27 [31] was Active. The result in the series on HGC-27 [32] was Active. Also, the viability at 20 µM in the series with MGC-803 [16] came out at 60.7%. The IC50 was 44.8 µM with SGC-7901, 14.8 µM in the series with BGC-823 and 23.3 µM in the series on AGS. In the series “in vitro”, this compound registered an IC50 at 72 h greater than 100 µM. The viability at 0.4 µM with HGC-27 [30] was determined as 70.7%.

In general, IC50 refers to the concentration that gives 50% inhibition. A lower IC50 goes with greater potency.

Values taken from ChEMBL document CHEMBL5143508, “Design, synthesis and biological evaluation of novel o-aminobenzamide derivatives as potential anti-gastric cancer agents in vitro and in vivo” (Eur J Med Chem, 2022).
